The subject of one data set is RAW 264.7 cells. Description: CCK8 cell viability assay. In kind it is cell-based, mouse. Particulars: 100 μM, 24 h. Here is the method: RAW 264.7 cells were plated in a 96-well plate and treated with each compound (0, 25 μM, 50 μM and 100 μM) for 24 h. The viability of cells was tested by CCK8 assay. Data from three times independent experiments were expressed as means±SD. *P<0.05 compared with the control group for compound 3a-3j.
RAW 264.7 cells were plated in a 96-well plate and treated with each compound (0, 25 μM, 50 μM and 100 μM) for 24 h. The viability of cells was tested by CCK8 assay. Data from three times independent experiments were expressed as means±SD. *P<0.05 compared with the control group for compound 3k-3t.
RAW 264.7 cells were plated in a 96-well plate and treated with each compound (0, 25 μM, 50 μM and 100 μM) for 24 h. The viability of cells was tested by CCK8 assay. Data from three times independent experiments were expressed as means±SD. *P<0.05 compared with the control group for compound 3u-3ad.
RAW 264.7 cells were plated in a 96-well plate and treated with each compound (0, 25 μM, 50 μM and 100 μM) for 24 h. The viability of cells was tested by CCK8 assay. Data from three times independent experiments were expressed as means±SD. *P<0.05 compared with the control group for compound 3ae-3ag′.
Cell Viability Assay The CCK8 assay was used to evaluate the effect of each flavan-3-ol on the viability of RAW264.7 cells. Cells were plated into 96-well plates at a density of 2×10^5 cells/well in medium and cultured overnight. For formal experiments, cells were treated with different concentrations of flavan-3-ols (25, 50, and 100 μM). After 24 h, 20 μl CCK8 solution (cat #A311-01/02, Vazyme Biotech Co., Ltd., Nanjing, China) was added into the medium and incubated for 45 min. The absorbance was measured at 450 nm.
To evaluate the anti-inflammatory effects of these newly synthesized flavan-3-ols, RAW 264.7 cells (mouse monocyte/macrophage cell) were used as the in vitro model. First, CCK-8 (Cell Counting Kit-8) assay was performed to test the effects of these newly synthesized flavan-3-ols on cell viability (FIG. 9a-d). RAW 264.7 cells were treated with the newly synthesized flavan-3-ols ranging from 25 to 100 μM for 24 h. As shown in […], treatment with each compound at 25 and 50 μM for 24 h had no effect on the cell viability of RAW 264.7 cell. […] Therefore, the final concentration of each compound used in the following experiments were no more than 100 μM, and compound concentrations at 25 and 50 μM were used in the further experiments.

In the next data set the test system is IL-1β. Description: ELISA of IL-1β secretion from LPS-stimulated RAW 264.7 cells. Type of data set: cell-based, mouse. Particulars: compound 50 μM 24 h, then LPS 1 μg/mL 2 h (FIG. 8). Here is the method: RAW 264.7 cells were pretreated with each compound (50 μM) for 24 h followed by LPS (1 μg/mL) stimulation for another 2 h. The concentrations of IL-1β in RAW 264.7 cell culture supernatants were measured by ELISA kits and the inhibition rate of compound on the secretion of each pro-inflammatory cytokine was calculated. Data from three independent experiments were expressed as means±SD. *P<0.05, **P<0.01 compared with LPS-stimulated group.
Cell culture The RAW 264.7 cell line was purchased from the Cell Bank of Shanghai Institute of Biochemistry & Cell Biology at the Chinese Academy of Sciences (Shanghai, China) and cultured in DMEM supplemented with 10% (v/v) fetal bovine serum (FBS), 100 U/ml penicillin and 100 […], in a stable environment with 5% CO2 at 37° C. Before used in the following in vitro experiments, RAW 264.7 cells were pretreated with synthesized flavan-3-ol (25, 50 μM) for 24 h followed by LPS (1 μg/mL) stimulation for another 2 h.
Enzyme-Linked Immunosorbent Assay (ELISA) RAW 264.7 cells were treated with these synthesized flavan-3-ols (25, 50 μM) for 24 h followed by LPS (1 μg/mL) stimulation for another 2 h and the culture supernatant was collected. The concentrations of IL-1β, IL-6 and TNF-α in the culture supernatant of RAW 264.7 cells were determined according to the manufacturer's instructions of the Duo-set enzyme linked immune sorbent assay kits, purchased from R&D Systems Co. Ltd. (Minneapolis, MN, USA).
The increased pro-inflammatory cytokines production in RAW 264.7 cells has been reported to play an influential role in the inflammation response. To evaluate the anti-inflammatory effects of these flavan-3-ols in vitro, ELISA kits were employed to investigate their effects on the LPS (lipopolysaccharide)-induced pro-inflammatory cytokines production of RAW 264.7 cells. After treating with the flavan-3-ols (25 and 50 μM) and stimulated by LPS, the levels of three main pro-inflammation cytokines including IL-1β ([…]), IL-6 (interleukin-6), and TNF-α (tumor necrosis factor-α) in culture supernatant from RAW 264.7 cells were measured by ELISA kits, and then the inhibition rates of the flavan-3-ols on the secretion of each pro-inflammatory cytokine were calculated by the formula shown as follows.
[formula] In this formula, “L” refers to “the pro-inflammatory cytokine level in cell culture supernatant of LPS-induced group (L)” and “Lc” refers to “the pro-inflammatory cytokine level in cell culture supernatant of compound-treated group (Lc)”. Using this calculation, the reduced levels of pro-inflammation cytokines in the compound treated group would give higher values, which reflect higher inhibition rates.
FIG. 4a-c show the effect of flavan-3-ols on pro-inflammatory cytokine secretion in vitro. RAW 264.7 cells were pretreated with each compound (25, 50 μM) for 24 h followed by LPS (1 μg/mL) stimulation for another 2 h. The concentrations of IL-1β, IL-6, TNF-α in RAW 264.7 cell culture supernatants were measured by ELISA kits and the inhibition rate of compound on the secretion of each pro-inflammatory cytokine was calculated.

The test system of data set [1] is LPS-stimulated RAW 264.7 cells. Description: RNA-sequencing analysis with GO and KEGG enrichment. In kind it is cell-based, mouse. Particulars: for inflammation-related genes downregulated: KEGG-classified inflammation-related genes. Here is the method: RNA-sequencing analysis RAW 264.7 cells were treated with each flavan-3-ol (25, 50 μM) for 24 h followed by LPS (1 μg/mL) stimulation for another 2 h. Cells were collected and then directly prepared for cDNAs amplification and RNA-Seq library construction. Total RNA was isolated with TRIzol reagent from each group. A complementary DNA library was prepared and sequencing was performed according to the Illumina standard protocol developed by Suzhou GENEWIZ Biological Technology Co., Ltd. (https://www.genewiz.com). […] After filtering, reference genome and gene model annotation files were downloaded from a genome website browser (NCBI/UCSC/Ensembl). Indexes of the reference genome were built using Bowtie v2.0.6 and paired-end clean reads were aligned to the reference genome using TopHat v2.0.9. Bowtie was used for a BWT (Burrows-Wheeler Transformer) algorithm for mapping reads to the genome and Tophat can generate a database of splice junctions based on the gene model annotation file and thus achieve a better mapping result than other non-splice mapping tools. For the quantification of gene expression level, HTSeq V0.6.1 was used to count the read numbers mapped for each gene. The RPKM of each gene was calculated based on the gene read counts mapped to this gene. A differential expression analysis was performed using the DESeq R package (1.10.1). For clustering, the inventors clustered different samples to see the correlation using hierarchical clustering distance method with the function of heatmap, SOM (Self-organization mapping) and k means using silhouette coefficient to adapt the optimal classification with default parameter in R. The complete RNA-seq datasets in this manuscript captioned has been deposited at GEO database (http://www.ncbi.nlm.nih.gov/geo/) under accession ID GSE181052.
Gene ontology (GO) and KEGG enrichment analysis GO enrichment analysis of differentially expressed genes was implemented by the GOseq R Package, in which gene length bias was corrected. GO analysis was performed with the DAVID online tool (https://david.ncifcrf.gov/). Top GO categories were selected according to the P-values. Pathways of differentially expressed genes were analyzed by the KEGG database (http://www.kegg.jp/kegg/). The inventors used KOBAS software to test the statistical enrichment of differential expression genes in KEGG pathways.
RNA-seq analysis of downstream genes regulated by flavan-3-ols. […] RNA-seq analysis was performed to further study the effects of compounds 3m, 3o, 3p, 3ae and 3ag on gene transcriptional pathways related to inflammation. RAW 264.7 cells were used in the RNA-seq analysis, in which cells were pretreated with each compound (50 μM) for 24 h followed by LPS (1 μg/mL) stimulation for another 2 h. […] Next, the inventors focused on genes related to inflammatory reactions and inflammation-related diseases (inflammation-related genes) based on the gene and pathway classification of Kyoto Encyclopedia of Genes and Genomes (KEGG database).
To further analyze the functional distribution of differentially-expressed genes in relation to different biological processes, cellular components and molecular functions, gene ontology (GO) enrichment analysis was performed. The histogram of GO enrichment of differentially-expressed genes was presented.
Furthermore, to determine the biochemical metabolic pathways and signal transduction pathways involved in differentially expressed genes regulated by compound 3ag, KEGG pathway analysis was then performed.

[2] abbreviates: 50 μM, vs LPS-stimulated group, of a total of 1915 genes.

As for `O[C@H]1Cc2ccccc2O[C@@H]1c1ccc(C(F)(F)F)cc1` [3i, (2R,3S)-2-(4-(trifluoromethyl)phenyl)chroman-3-ol], the melting point is 114 to 115 °C. For the same compound, the “effect on cell viability” value in the data set on RAW 264.7 cells is “reduced viability”.

`O[C@H]1Cc2cc(Cl)cc(Cl)c2O[C@@H]1c1ccccc1` [3ag, (2R,3S)-6,8-dichloro-2-phenylchroman-3-ol] registered a melting point of 126 to 127 °C. The “inhibition rate of IL-1β secretion compared with enantiomer and racemic form” value with IL-1β is given as “higher inhibition rates than their enantiomers”. The compound also showed a genes differentially regulated in data set [1] (50 μM 24 h, then LPS 1 μg/mL 2 h, vs untreated LPS-stimulated group) of 1098 genes. Moreover, in data set [1] (50 μM, vs LPS-stimulated group), the genes downregulated turned out to be 954 genes, the genes upregulated worked out at 144 genes and the inflammation-related genes downregulated is listed as 40 genes. In addition, in data set [1] (setting [2]), the “genes downregulated, share of genes expressed” value is 49.8% and the “genes upregulated, share of genes expressed” value was 7.5%. In addition, in data set [1] (vs LPS-induced group (FIG. 6)), the “GO enrichment of downregulated genes” value was “associated with inflammatory response (GO: 0006954) and cellular response to lipopolysaccharide (GO: 0071222)”. Further, the “KEGG pathways of downregulated genes” value in data set [1] (vs LPS-induced group (FIG. 7a-b)) was “IL-17 signaling pathways, PI3K-Akt signaling pathway and TNF signaling pathway”.

Take `O[C@H]1Cc2cc(F)ccc2O[C@@H]1c1ccccc1` [3ad, (2R,3S)-6-fluoro-2-phenylchroman-3-ol]: the melting point fell in the range of 110 to 111 °C. In addition, in the data set on RAW 264.7 cells, the “effect on cell viability” value is on record as “reduced viability”.

Turning to `O[C@H]1Cc2ccccc2O[C@@H]1c1cccs1` [3n, (2S,3S)-2-(thiophen-2-yl)chroman-3-ol], the melting point was 94 to 95 °C. In addition, in the data set on RAW 264.7 cells, the “effect on cell viability” value was “reduced viability”.

`O[C@H]1Cc2c(F)cc(F)cc2O[C@@H]1c1ccc(F)c(F)c1` [3ai, (2R,3S)-2-(3,4-difluorophenyl)-5,7-difluorochroman-3-ol]: the “effect on cell viability” value in the data set with RAW 264.7 cells was “reduced viability”.

`O[C@H]1Cc2ccccc2O[C@@H]1c1ccco1` [3o, (2S,3S)-2-(furan-2-yl)chroman-3-ol] gave a melting point of 80 to 81 °C. Also, in the data set with IL-1β, the “inhibition rate of IL-1β secretion compared with enantiomer and racemic form” value is reported as “higher inhibition rates than their enantiomers”. The inflammation-related genes downregulated entry in data set [1] (50 μM, vs LPS-stimulated group) is recorded as “downregulated parts of inflammation-related genes”.

The values are drawn from patent US11952358B2, “Flavan-3-ol analogs and anti-inflammatory activity” (Hong Kong Baptist University, priority 2021, dated 2024).
